Data on one substance can be found in US20170218375A1, “MORPHOLINOS, MORPHOLINO UPREGULATING, AND ASSOCIATED METHODS” (University of Utah Research Foundation, priority 2011, published 2017).

{Dendrimer} = dendrimer conjugate (vivo-morpholino)

Holding throughout (type): in vivo
The subject of one series is sVEGFR2/mbVEGFR2 mRNA. The series can be described thus: Real-time PCR of mouse retinal total RNA after intravitreous injection. Conditions: 2 μl of 100 ng/μl intravitreously on day 0 and day 3, retina on day 4, vivo-morpholino. An excerpt: (§1) To administer morpholinos in vivo, morpholino conjugated with a dendrimer at the 3′ position (vivo-morpholino) was used for animal experiments. It should be understood that this technique is merely exemplary, and any other method of administration is considered to be within the present scope. […] Next, the protein level of mbVEGFR2 and sVEGFR2 in the retina and the ocular solution was examined by western blot. Consistent with real-time PCR results, moVEGFR2_MOe13 decreased mbVEGFR2 protein in the retina (FIG. 7C) and increased sVEGFR2 protein in the ocular solution (FIG. 7D).
(§2) To examine whether moVEGFR2_MOe13 could work in the mouse eye, on day 0 and day 3 2 μl of 100 ng/μl moVEGFR2_MOe13 or STD_MO or DPBS were injected intravitreously. On day 4, retinal total RNA was extracted with RNeasy mini kit with DNaseI treatment. sVEGFR2 and mbVEGFR2 mRNA expression were determined by the method described above. For western blot of mbVEGFR2, on day 4, retina was dissolved in RIPA buffer. For western blot of sVEGFR2, on 4 day, intraocular solution was obtained from 6 eyes by pipette. After centrifuge, supernatant was used for further experiment. For western blot, biotin-conjugated anti-VEGFR2 (BAF644, R&D Systems, Minneapolis, Minn.) was used at 1 μg/μl.
For orientation: Quantitative PCR measures a nucleic acid by following its amplification.

The test system of another series is mbVEGFR2 protein. Kind of series: Western blot for mbVEGFR2 from mouse retinal protein after intravitreous injection. Conditions: 2 μl of 100 ng/μl intravitreously on day 0 and day 3, western blot on day 4.
Source text: as §1, §2
Background: In western blotting, separated proteins are transferred to a membrane and probed.

The test system of the next series is sVEGFR2 protein. The series can be described thus: Western blot for sVEGFR2 from mouse ocular solution after intravitreous injection. Conditions: 2 μl of 100 ng/μl intravitreously on day 0 and day 3, western blot on day 4.
Source text: as §1, §2

In series [1] the test system is corneal transplant rejection. The series can be described thus: Mouse corneal transplantation model. The protocol: It was also examined whether moVEGFR2_MOe13 can suppress murine corneal transplant rejection. After cornea transplantation, moVEGFR2_MOe13, STD_MO or DPBS were injected subconjuctivally. […] The arrow indicates censored data. […] Scale bar is 1 mm. FIGS. 12(c, d) Show the mean area of corneal neovascularization and lymphangiogenesis at 8 weeks respectively (n=11-17). Risk factors (p-value) were calculated by two-tail student's t-test (*: p<0.05, **p<0.01). Error bar is ±s.e.m.
Mouse corneal transplantation has been described previously. The donor cornea was marked with 2 mm trephine, the anterior chamber was penetrated using a knife (ClearCut™ Alcon, Inc) and the cornea was cut with Vannas scissors and then placed in Balanced Salt Solution (BSS® Alcon Laboratories, Inc, Fort Worth). The recipient mouse was anesthetized by intramuscular injection with ketamine (100 mg/kg body weight) and xylazine (20 mg/kg body weight). To dilate pupil and anesthetize the cornea, 1% tropicamide ophthalmic solution and 0.5% proparacaine ophthalmic solution were used. The recipient's right cornea was marked with 1.5 mm trephine and removed by the same method as the donor cornea. Viscoelastic material (Healon, 1% sodium hyaluronate, Abbott Medical Optics, IL) was used during recipient cornea dissection. […]

Take “5′-cacccagggatgcctccatacCTAG-3′ (antisense CACCCAGGGATGCCTCCATACCTAG; all phosphorodiamidate morpholino (PMO), 3' {Dendrimer}) [moVEGFR2_MOe13, morpholino that targets the exon13-intron13 junction of the mouse VEGFR2 gene; in vivo conjugated with a dendrimer (vivo-morpholino)]”: the “sVEGFR2/mbVEGFR2 mRNA ratio in retina” value in the series on sVEGFR2/mbVEGFR2 mRNA is listed as “significantly increased”. For the same substance, the “mbVEGFR2 protein in the retina” value with mbVEGFR2 protein is on record as “decreased”. The “sVEGFR2 protein in the ocular solution” value with sVEGFR2 protein is “increased”. Further, the “corneal neovascularization and lymphangiogenesis at 8 weeks” value in series [1] (mean area, CD31 and LYVE-1 stained cornea at the endpoint (8 weeks), FIGS. 12C, D) is given as “decreased”. The graft survival entry in series [1] (mouse cornea transplantation, 15 ul of 40 ng/μl subconjunctivally day of transplantation and weeks 1-4, compared with DPBS and STD_MO (log rank p=0.0186 and 0.0610)) is on record as “increased”.
